We go through 12 compounds from PubChem BioAssay AID248 (DTP/NCI, 2004).

For this test, the system named is L1210 leukemia ip in BDF1 mice, survival T/C. Briefly: NCI In Vivo Anticancer Drug Screen. Data for tumor model L1210 Leukemia (intraperitoneal) in B6D2F1 (BDF1) mice. The conditions noted are these: higher = longer survival. A digest of the protocol: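 Value reflects the ratio of survival in compound-treated mice to survival in vehicle-treated controls, with both groups carrying the same transplanted tumor.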

Setting [1] is: endpoint: mean survival time, dose: 100.0 mg/kg/injection, schedule: Q01DX001 (ip), vehicle: saline.
The mark [2] stands for this setting: endpoint: mean survival time, dose: 400.0 mg/kg/injection, schedule: Q01DX001 (ip), vehicle: saline.
Setting [3] is: endpoint: mean survival time, dose: 100.0 mg/kg/injection, schedule: Q01DX009 (ip), vehicle: Klucel (hydroxypropylcellulose) (HPC).
Setting [4] is: endpoint: mean survival time, dose: 200.0 mg/kg/injection, schedule: Q01DX009 (ip), vehicle: Klucel (hydroxypropylcellulose) (HPC).
[5] abbreviates: endpoint: mean survival time, dose: 400.0 mg/kg/injection, schedule: Q01DX009 (ip), vehicle: Klucel (hydroxypropylcellulose) (HPC).

Values joined by “and” are separate entries in the source; they are usually repeats but may differ in a detail not shown here. Equal values may be shown once. Toxic doses and inconclusive results are not listed.

As to `O=C(O)C(=S)Cc1cn[nH]n1`, the T/C runs as follows: under setting [1], 103 % of control; under setting [2], 100 % of control.
For the compound `O=C(Cc1ccccc1)Nc1cccc(Cl)c1`, the T/C is 100 % of control under setting [3], 86 % of control under setting [4] and 95 % of control under setting [5].
Turning to `O=C1OC(O)c2cccc3cccc1c23` (configuration not stated), the T/C (endpoint: mean survival time, dose: 12.5 mg/kg/injection, schedule: Q01DX009 (ip), vehicle: saline with Tween-80) is 93 % of control and 89 % of control.
`CC1([N+](=O)[O-])COP(=O)(NC2CC2)OC1` (configuration not stated): the T/C by setting is: (endpoint: mean survival time, dose: 50.0 mg/kg/injection, schedule: Q01DX001 (ip), vehicle: carboxymethylcellulose (CMC)) 97 % of control; (endpoint: mean survival time, dose: 100.0 mg/kg/injection, schedule: Q01DX001 (ip), vehicle: carboxymethylcellulose (CMC)) 97 % of control; (endpoint: mean survival time, dose: 200.0 mg/kg/injection, schedule: Q01DX001 (ip), vehicle: carboxymethylcellulose (CMC)) 103 % of control; (endpoint: mean survival time, dose: 400.0 mg/kg/injection, schedule: Q01DX001 (ip), vehicle: carboxymethylcellulose (CMC)) 97 % of control.
Consider `CCCCCCCCCCCC(CCCC)CCCC`, for which the T/C was 93 % of control (endpoint: mean survival time, dose: 100.0 mg/kg/injection, schedule: Q01DX001 (ip), vehicle: saline with Tween-80); 104 % of control (endpoint: mean survival time, dose: 200.0 mg/kg/injection, schedule: Q01DX001 (ip), vehicle: saline with Tween-80); 101 % of control (endpoint: mean survival time, dose: 400.0 mg/kg/injection, schedule: Q01DX001 (ip), vehicle: saline with Tween-80).
For the compound `CN(C)OC(=O)Nc1cccc([N+](=O)[O-])c1`, the T/C (endpoint: mean survival time, dose: 100.0 mg/kg/injection, schedule: Q04DX002 (ip), vehicle: other) was 87 % of control; the T/C (endpoint: mean survival time, dose: 200.0 mg/kg/injection, schedule: Q04DX002 (ip), vehicle: other) was 102 % of control; the T/C (endpoint: mean survival time, dose: 400.0 mg/kg/injection, schedule: Q04DX002 (ip), vehicle: other) is 117 % of control.
On to `COc1cc2cc(C)c(C)cc2cc1OC`, for which the T/C runs as follows: (endpoint: mean survival time, dose: 100.0 mg/kg/injection, schedule: Q01DX001 (ip), vehicle: Klucel (hydroxypropylcellulose) (HPC)) 98 % of control; under setting [3], 103 % of control; (endpoint: mean survival time, dose: 200.0 mg/kg/injection, schedule: Q01DX001 (ip), vehicle: Klucel (hydroxypropylcellulose) (HPC)) 101 % of control; under setting [4], 110 % of control; (endpoint: mean survival time, dose: 400.0 mg/kg/injection, schedule: Q01DX001 (ip), vehicle: Klucel (hydroxypropylcellulose) (HPC)) 98 % of control; under setting [5], 109 % of control.
For the compound `C=C1C2CCC(C2)C1(C)CC/C=C(/C)CO` (configuration not stated) (tested in a mixture with another compound), the T/C was 96 % of control (endpoint: mean survival time, dose: 100.0 mg/kg/injection, schedule: Q04DX003 (ip), vehicle: Klucel (hydroxypropylcellulose) (HPC)); 96 % of control (endpoint: mean survival time, dose: 200.0 mg/kg/injection, schedule: Q04DX003 (ip), vehicle: Klucel (hydroxypropylcellulose) (HPC)); 93 % of control (endpoint: mean survival time, dose: 400.0 mg/kg/injection, schedule: Q04DX003 (ip), vehicle: Klucel (hydroxypropylcellulose) (HPC)).
As to `S=P(c1cccs1)(c1cccs1)c1cccs1`, the T/C reads like this: (endpoint: mean survival time, dose: 100.0 mg/kg/injection, schedule: Q04DX003 (ip), vehicle: saline with Tween-80) 93 % of control; (endpoint: mean survival time, dose: 200.0 mg/kg/injection, schedule: Q04DX003 (ip), vehicle: saline with Tween-80) 96 % of control; (endpoint: mean survival time, dose: 400.0 mg/kg/injection, schedule: Q04DX003 (ip), vehicle: saline with Tween-80) 86 % of control.
For `COC(=O)Nc1cccc(-c2nc3ccc(NC(=O)OC)cc3c(=O)n2-c2ccccc2)c1`, the T/C (endpoint: mean survival time, dose: 6.25 mg/kg/injection, schedule: Q01DX009 (ip), vehicle: Klucel (hydroxypropylcellulose) (HPC)) is 94 % of control and 98 % of control; the T/C (endpoint: mean survival time, dose: 12.5 mg/kg/injection, schedule: Q01DX009 (ip), vehicle: Klucel (hydroxypropylcellulose) (HPC)) is 97 % of control and 101 % of control; the T/C (endpoint: mean survival time, dose: 25.0 mg/kg/injection, schedule: Q01DX009 (ip), vehicle: Klucel (hydroxypropylcellulose) (HPC)) was 102 % of control and 88 % of control; the T/C (endpoint: mean survival time, dose: 25.0 mg/kg/injection, schedule: Q01DX009 (ip), vehicle: other) was 113 % of control; the T/C (endpoint: mean survival time, dose: 25.0 mg/kg/injection, schedule: Q01DX009 (oral), vehicle: Klucel (hydroxypropylcellulose) (HPC)) was 93 % of control and 97 % of control; the T/C (endpoint: mean survival time, dose: 25.0 mg/kg/injection, schedule: Q04DX003 (ip), vehicle: saline) was 97 % of control. The T/C is, setting by setting: (endpoint: mean survival time, dose: 50.0 mg/kg/injection, schedule: Q01DX009 (ip), vehicle: Klucel (hydroxypropylcellulose) (HPC)) 120 % of control; (endpoint: mean survival time, dose: 50.0 mg/kg/injection, schedule: Q01DX009 (ip), vehicle: other) 114 % of control; (endpoint: mean survival time, dose: 50.0 mg/kg/injection, schedule: Q01DX009 (oral), vehicle: Klucel (hydroxypropylcellulose) (HPC)) 102 % of control; (endpoint: mean survival time, dose: 50.0 mg/kg/injection, schedule: Q04DX003 (ip), vehicle: saline) 101 % of control; (endpoint: mean survival time, dose: 100.0 mg/kg/injection, schedule: Q01DX009 (oral), vehicle: Klucel (hydroxypropylcellulose) (HPC)) 97 % of control and 101 % of control; (endpoint: mean survival time, dose: 100.0 mg/kg/injection, schedule: Q04DX003 (ip), vehicle: saline) 103 % of control and 107 % of control. The T/C was 104 % of control and 121 % of control (endpoint: mean survival time, dose: 200.0 mg/kg/injection, schedule: Q01DX009 (oral), vehicle: Klucel (hydroxypropylcellulose) (HPC)); 105 % of control (endpoint: mean survival time, dose: 200.0 mg/kg/injection, schedule: Q01DX009 (oral), vehicle: other); 110 % of control (endpoint: mean survival time, dose: 200.0 mg/kg/injection, schedule: Q04DX003 (ip), vehicle: saline); 102 % of control (endpoint: mean survival time, dose: 300.0 mg/kg/injection, schedule: Q01DX009 (oral), vehicle: other); 116 % of control and 121 % of control (endpoint: mean survival time, dose: 400.0 mg/kg/injection, schedule: Q01DX009 (oral), vehicle: Klucel (hydroxypropylcellulose) (HPC)); 116 % of control (endpoint: mean survival time, dose: 400.0 mg/kg/injection, schedule: Q01DX009 (oral), vehicle: other). Moreover, the T/C was 110 % of control (endpoint: mean survival time, dose: 400.0 mg/kg/injection, schedule: Q04DX003 (ip), vehicle: saline); 102 % of control (endpoint: mean survival time, dose: 500.0 mg/kg/injection, schedule: Q01DX009 (oral), vehicle: other); 119 % of control and 120 % of control (endpoint: mean survival time, dose: 800.0 mg/kg/injection, schedule: Q01DX009 (oral), vehicle: Klucel (hydroxypropylcellulose) (HPC)); 103 % of control (endpoint: median survival time, dose: 25.0 mg/kg/injection, schedule: Q01DX009 (oral), vehicle: saline); 102 % of control (endpoint: median survival time, dose: 50.0 mg/kg/injection, schedule: Q01DX009 (oral), vehicle: saline); 104 % of control (endpoint: median survival time, dose: 100.0 mg/kg/injection, schedule: Q01DX009 (oral), vehicle: saline). For the same compound, the T/C is, setting by setting: (endpoint: median survival time, dose: 100.0 mg/kg/injection, schedule: Q04DX003 (ip), vehicle: other) 158 % of control; (endpoint: median survival time, dose: 100.0 mg/kg/injection, schedule: Q04DX003 (ip), vehicle: saline) 185 % of control; (endpoint: median survival time, dose: 200.0 mg/kg/injection, schedule: Q01DX009 (oral), vehicle: saline) 104 % of control; (endpoint: median survival time, dose: 200.0 mg/kg/injection, schedule: Q04DX003 (ip), vehicle: Klucel (hydroxypropylcellulose) (HPC)) 158 % of control; (endpoint: median survival time, dose: 200.0 mg/kg/injection, schedule: Q04DX003 (ip), vehicle: other) 119 % of control; (endpoint: median survival time, dose: 200.0 mg/kg/injection, schedule: Q04DX003 (ip), vehicle: saline with Tween-80) 154 % of control. The T/C is 113 % of control (endpoint: median survival time, dose: 200.0 mg/kg/injection, schedule: Q04DX003 (oral), vehicle: saline); 123 % of control (endpoint: median survival time, dose: 300.0 mg/kg/injection, schedule: Q04DX003 (oral), vehicle: saline); 178 % of control (endpoint: median survival time, dose: 400.0 mg/kg/injection, schedule: Q04DX003 (ip), vehicle: Klucel (hydroxypropylcellulose) (HPC)); 190 % of control (endpoint: median survival time, dose: 400.0 mg/kg/injection, schedule: Q04DX003 (ip), vehicle: saline with Tween-80); 112 % of control (endpoint: median survival time, dose: 400.0 mg/kg/injection, schedule: Q04DX003 (oral), vehicle: saline).
As to `Cc1cc(C)c(NC(C)C)c(C)c1N`, the T/C by setting is: (endpoint: mean survival time, dose: 50.0 mg/kg/injection, schedule: Q04DX002 (ip), vehicle: Klucel (hydroxypropylcellulose) (HPC)) 92 % of control; under setting [1], 104 % of control; (endpoint: mean survival time, dose: 100.0 mg/kg/injection, schedule: Q04DX002 (ip), vehicle: Klucel (hydroxypropylcellulose) (HPC)) 92 % of control; (endpoint: mean survival time, dose: 200.0 mg/kg/injection, schedule: Q01DX001 (ip), vehicle: saline) 92 % of control; (endpoint: mean survival time, dose: 200.0 mg/kg/injection, schedule: Q04DX002 (ip), vehicle: Klucel (hydroxypropylcellulose) (HPC)) 95 % of control; under setting [2], 93 % of control.
As for `Nc1ncccc1[N+](=O)[O-]`, the T/C runs as follows: (endpoint: mean survival time, dose: 100.0 mg/kg/injection, schedule: Q01DX009 (ip), vehicle: saline with Tween-80) 109 % of control; (endpoint: mean survival time, dose: 200.0 mg/kg/injection, schedule: Q01DX009 (ip), vehicle: saline with Tween-80) 98 % of control; (endpoint: mean survival time, dose: 400.0 mg/kg/injection, schedule: Q01DX009 (ip), vehicle: saline with Tween-80) 112 % of control.
